Test system: Trypanosoma cruzi
Assay: Antitrypanosomal activity against Trypanosoma cruzi Y epimastigote form after 11 days by Trypan blue exclusion method
Type: functional, organism-based
Settings: 264 h

SMILES | IC50
C/C(CSc1ccccc1)=N/NC1=NC(=O)C(C)S1 (stereo unspecified) | 83.3 µM
CC1CS(=O)(=O)CCN1/N=C/c1ccc([N+](=O)[O-])o1 (stereo unspecified) [NIFURTIMOX] | 1.9 µM
CCC1SC(N/N=C\CSc2ccccc2)=NC1=O (stereo unspecified) | 0.3 µM
Cc1ccc(SC/C=N\NC2=NC(=O)C(C)S2)cc1 (stereo unspecified) | 63.4 µM
O=C(Cn1ccnc1[N+](=O)[O-])NCc1ccccc1 [BENZNIDAZOLE] | 6.6 µM

The remaining lines, values ahead:

IC50 | SMILES
92.3 µM | Cc1ccc(SC/C=N\NC2=NC(=O)CS2)cc1
2.9 µM | O=C1CSC(N/N=C\CCSc2ccccc2)=N1
43.9 µM | O=C1CSC(N/N=C\CSc2ccc(Cl)cc2)=N1
35 µM | O=C1CSC(N/N=C\CSc2ccccc2)=N1
42.9 µM | O=C1CSC(N/N=C\CSc2ccc(Br)cc2)=N1

Test system: not listed separately
Assay: Cytotoxicity against BALB/c mouse splenocytes after 24 hrs by [3H]thymidine incorporation assay
Type: cell-based
Settings: splenocyte

SMILES | Activity
C/C(CSc1ccccc1)=N/NC1=NC(=O)C(C)S1 (stereo unspecified) | > 100 µg/mL
CC1CS(=O)(=O)CCN1/N=C/c1ccc([N+](=O)[O-])o1 (stereo unspecified) [NIFURTIMOX] | 1 µg/mL
CCC1SC(N/N=C\CSc2ccccc2)=NC1=O (stereo unspecified) | > 100 µg/mL
Cc1ccc(SC/C=N\NC2=NC(=O)CS2)cc1 | > 100 µg/mL
O=C1CSC(N/N=C\CCSc2ccccc2)=N1 | > 100 µg/mL
O=C1CSC(N/N=C\CSc2ccc(Cl)cc2)=N1 | > 100 µg/mL
Cc1ccc(SC/C=N\NC2=NC(=O)C(C)S2)cc1 (stereo unspecified) | > 100 µg/mL
O=C1CSC(N/N=C\CSc2ccccc2)=N1 | > 100 µg/mL
O=C1CSC(N/N=C\CSc2ccc(Br)cc2)=N1 | > 100 µg/mL
O=C(Cn1ccnc1[N+](=O)[O-])NCc1ccccc1 [BENZNIDAZOLE] | 25 µg/mL

Test system: Trypanosoma cruzi
Assay: Antitrypanosomal activity against Trypanosoma cruzi Y trypomastigote form after 24 hrs by Trypan blue exclusion method
Type: functional, organism-based
Settings: not given

SMILES | IC50
CCC1SC(N/N=C\CSc2ccccc2)=NC1=O (stereo unspecified) | 48.2 µM
Cc1ccc(SC/C=N\NC2=NC(=O)C(C)S2)cc1 (stereo unspecified) | 84.8 µM

Further lines, results first:

IC50 | SMILES
20 µM | Cc1ccc(SC/C=N\NC2=NC(=O)CS2)cc1
10 µM | O=C1CSC(N/N=C\CCSc2ccccc2)=N1
82.4 µM | O=C1CSC(N/N=C\CSc2ccc(Cl)cc2)=N1
7.8 µM | O=C1CSC(N/N=C\CSc2ccccc2)=N1

— ChEMBL document CHEMBL1155255, “Ruthenium complexes endowed with potent anti-Trypanosoma cruzi activity: Synthesis, biological characterization and structure-activity relationships” (Bioorg Med Chem, 2009)
